From PubChem BioAssay AID220 (DTP/NCI, 2004)
Records with an inconclusive call do not appear.

Tested on: CD8F1 mice, subcutaneous mammary adenocarcinoma, T/C%
Assay: NCI In Vivo Anticancer Drug Screen. Data for tumor model Mammary Adenocarcinoma CD8F1 (subcutaneous) in CD8F1
Conditions: higher = larger tumour
Protocol: The antitumor activity of compounds was measured in mice bearing transplantable tumors. Survival or tumor size were measured and the results are expressed as the measurement made in the treated group (T) divided by the measurement made in the vehicle treated control group (C). The tumor model used in this assay is Mammary Adenocarcinoma CD8F1 (subcutaneous) in CD8F1

[1] = endpoint: median tumor weight change, dose: 125.0 mg/kg/injection, schedule: Q01DX001 (ip), vehicle: saline with Tween-80
[2] = endpoint: median tumor weight (est.), dose: 12.5 mg/kg/injection, schedule: Q07DX005 (ip), vehicle: saline with Tween-80
[3] = endpoint: median tumor weight (est.), dose: 25.0 mg/kg/injection, schedule: Q07DX005 (ip), vehicle: saline with Tween-80
[4] = endpoint: median tumor weight (est.), dose: 50.0 mg/kg/injection, schedule: Q07DX005 (ip), vehicle: saline with Tween-80
[5] = endpoint: median tumor weight (est.), dose: 100.0 mg/kg/injection, schedule: Q07DX005 (ip), vehicle: saline with Tween-80
[6] = endpoint: median tumor weight (est.), dose: 200.0 mg/kg/injection, schedule: Q07DX005 (ip), vehicle: saline with Tween-80
[7] = endpoint: median tumor weight (est.), dose: 400.0 mg/kg/injection, schedule: Q07DX005 (ip), vehicle: saline with Tween-80
[8] = endpoint: median tumor weight change, dose: 500.0 mg/kg/injection, schedule: Q01DX001 (ip), vehicle: saline with Tween-80

C/C=C(\C)c1cc(=O)c2c(C)cc3c(c2o1)C(=O)c1c(O)c(C2CC(C)(N(C)C)C(O)C(C)O2)cc(C2CC(N(C)C)C(O)C(C)O2)c1C3=O (stereo not given)
T/C (endpoint: median tumor weight change, dose: 0.16 mg/kg/injection, schedule: Q01DX001 (ip), vehicle: saline): 78 % of control
T/C (endpoint: median tumor weight change, dose: 0.31 mg/kg/injection, schedule: Q01DX001 (ip), vehicle: saline): 51 % of control
T/C (endpoint: median tumor weight change, dose: 0.62 mg/kg/injection, schedule: Q01DX001 (ip), vehicle: saline): 52 % of control
T/C (endpoint: median tumor weight change, dose: 2.5 mg/kg/injection, schedule: Q01DX001 (ip), vehicle: suspension in saline): 61 % of control
T/C (endpoint: median tumor weight change, dose: 5.0 mg/kg/injection, schedule: Q01DX001 (ip), vehicle: suspension in saline): 42 % of control
T/C (endpoint: median tumor weight change, dose: 10.0 mg/kg/injection, schedule: Q01DX001 (ip), vehicle: saline): -9 % of control

CCc1ccc(C2=C(O)C(=O)C(c3ccc(CC)cc3)=C(O)C2=O)cc1
T/C (endpoint: median tumor weight change, dose: 16.0 mg/kg/injection, schedule: Q01DX001 (ip), vehicle: saline with Tween-80): 88 % of control
T/C (endpoint: median tumor weight change, dose: 31.0 mg/kg/injection, schedule: Q01DX001 (ip), vehicle: saline with Tween-80): 107 % of control
T/C (endpoint: median tumor weight change, dose: 62.0 mg/kg/injection, schedule: Q01DX001 (ip), vehicle: saline with Tween-80): 92 % of control
T/C [1]: 61 % of control

CC1(CO)C(O)CCC2(C)C1CCC1CC3CC12CCC3(O)CO (stereo not given)
T/C [2]: 39 % of control
T/C (endpoint: median tumor weight (est.), dose: 18.75 mg/kg/injection, schedule: Q07DX005 (ip), vehicle: saline with Tween-80): 53 % of control
T/C [3]: 55 % of control
T/C (endpoint: median tumor weight (est.), dose: 37.5 mg/kg/injection, schedule: Q07DX005 (ip), vehicle: saline with Tween-80): 85 % of control
T/C [4]: 60 % of control
T/C [5]: 58 % of control
T/C [6]: 92 % of control
T/C [7]: 13 % of control

COc1ccc(C(=O)c2no[n+]([O-])c2C(=O)c2ccc(OC)cc2)cc1
T/C [8]: 84 % of control

NC(=O)Oc1cccc(OC(N)=O)c1
T/C (endpoint: mean tumor weight, dose: 50.0 mg/kg/injection, schedule: Q07DX006 (ip), vehicle: water): 161 % of control
T/C (endpoint: mean tumor weight, dose: 100.0 mg/kg/injection, schedule: Q07DX006 (ip), vehicle: water): 56 % of control
T/C (endpoint: mean tumor weight, dose: 200.0 mg/kg/injection, schedule: Q07DX006 (ip), vehicle: water): 73 % of control
T/C (endpoint: mean tumor weight, dose: 400.0 mg/kg/injection, schedule: Q07DX006 (ip), vehicle: water): 93 % of control
T/C (endpoint: median tumor weight (est.), dose: 25.0 mg/kg/injection, schedule: Q07DX005 (ip), vehicle: water): 99 % of control
T/C (endpoint: median tumor weight (est.), dose: 50.0 mg/kg/injection, schedule: Q07DX005 (ip), vehicle: water): 105 % of control
T/C (endpoint: median tumor weight (est.), dose: 200.0 mg/kg/injection, schedule: Q07DX005 (ip), vehicle: water): 106 % of control
T/C (endpoint: median tumor weight (est.), dose: 400.0 mg/kg/injection, schedule: Q07DX005 (ip), vehicle: water): 63 % of control

C[Si](C)(C)O/C=C1/CCOC1=O
T/C (endpoint: median tumor weight change, dose: 125.0 mg/kg/injection, schedule: Q01DX001 (ip), vehicle: saline): 96 % of control
T/C (endpoint: median tumor weight change, dose: 500.0 mg/kg/injection, schedule: Q01DX001 (ip), vehicle: saline): 82 % of control
T/C (endpoint: median tumor weight change, dose: 1000.0 mg/kg/injection, schedule: Q01DX001 (ip), vehicle: saline): 72 % of control

CCOC(=O)C1(c2ccccc2)C(=O)Oc2ccccc21 (stereo not given)
T/C [2]: 84 % of control
T/C [3]: 69 % of control
T/C [4]: 97 % of control
T/C [5]: 119 % of control
T/C [6]: 113 % of control
T/C [7]: 70 % of control
T/C [1]: 82 % of control
T/C [8]: 71 % of control
T/C (endpoint: median tumor weight change, dose: 1000.0 mg/kg/injection, schedule: Q01DX001 (ip), vehicle: saline with Tween-80): 61 % of control
T/C (endpoint: median tumor weight change, dose: 2000.0 mg/kg/injection, schedule: Q01DX001 (ip), vehicle: saline with Tween-80): 100 % of control
